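The compound was tested at five concentrations on cells cultured in 96-well plates, with a 48-hour exposure period. Definition used: TGI = concentration required for complete inhibition of growth.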
Assays:
Assay in all cases: NCI anticancer screen, dose series, 48 h
[1] = system: MOLT-4 leukemia
[2] = system: EKVX NSCLC
[3] = system: HT29 colon
[4] = system: SK-MEL-2 melanoma
[5] = system: OVCAR-4 ovarian
[6] = system: CCRF-CEM leukemia
[7] = system: NCI-H460 lung
[8] = system: NCI-H226 lung
[9] = system: SK-MEL-5 melanoma
[10] = system: MCF7 breast
[11] = system: MALME-3M melanoma
[12] = system: IGROV1 ovarian
[13] = system: OVCAR-8 ovarian
[14] = system: OVCAR-3 ovarian
[15] = system: K-562 leukemia

| SMILES | TGI [1] [µM] | TGI [2] [µM] | TGI [3] [µM] | TGI [4] [µM] | TGI [5] [µM] | TGI [6] [µM] | TGI [7] [µM] | TGI [8] [µM] | TGI [9] [µM] | TGI [10] [µM] | TGI [11] [µM] | TGI [12] [µM] | TGI [13] [µM] | TGI [14] [µM] | TGI [15] [µM] |
| --- | --- | --- | --- | --- | --- | --- | --- | --- | --- | --- | --- | --- | --- | --- | --- |
| CNC(=O)C1CCC(=O)N1CN(C(C)=O)c1ccccc1 (stereo unspecified) | > 100 | > 100 | > 100 | > 100 | > 100 | 0.426 | > 100 | > 100 | > 100 | > 100 | > 100 | > 100 | > 100 | > 100 | > 100 |
| CCn1c(SCC(=O)NNC(=S)Nc2ccc(Cl)cc2)nc2ccccc2c1=O | > 100 | > 100 | – | > 100 | > 100 | > 100 | > 100 | > 100 | > 100 | > 100 | > 100 | > 100 | > 100 | > 100 | > 100 |
| O=C1NC(=O)/C(=C/c2ccc(S(=O)(=O)N/N=C/c3ccccc3)cc2)N1 | > 100 | > 100 | > 100 | > 100 | > 100 | > 100 | – | > 100 | > 100 | > 100 | > 100 | > 100 | > 100 | > 100 | > 100 |
| N=c1oc2ccc([N+](=O)[O-])cc2cc1C(=O)Nc1ccccn1 | > 100 | > 100 | > 100 | 43.4 | > 100 | > 100 | > 100 | > 100 | > 100 | > 100 | 77.6 | > 100 | > 100 | 65.8 | > 100 |
| COc1ccc(/C=N/NS(=O)(=O)c2ccc(/C=C3\NC(=O)N(C)C3=O)cc2)cc1 | > 100 | > 100 | > 100 | > 100 | > 100 | > 100 | > 100 | > 100 | > 100 | > 100 | > 100 | > 100 | > 100 | > 100 | > 100 |
| CSc1ncc2c(C#N)c3ccccn3c(=O)c2n1 | > 100 | > 100 | > 100 | > 100 | > 100 | > 100 | > 100 | > 100 | > 100 | > 100 | > 100 | > 100 | > 100 | > 100 | > 100 |
| Cc1ccccc1C(=O)NC(O)(C(F)(F)F)C(F)(F)F | > 100 | > 100 | > 100 | > 100 | > 100 | > 100 | > 100 | > 100 | > 100 | > 100 | > 100 | > 100 | > 100 | > 100 | > 100 |
| Cc1cc(CN(Cc2ccccc2)Cc2nc3ccccc3[nH]2)c(O)c(CN(Cc2nc3ccccc3[nH]2)Cc2nc3ccccc3[nH]2)c1 | 42.1 | 99.1 | > 69.6 | 36.1 | 98.7 | > 21.8 | 28 | > 50.9 | 19.5 | 8.87 | > 93.2 | > 93.2 | > 100 | 63.5 | > 26.3 |
| S=C1NCCN1C(=S)NC1CCCCC1 | > 100 | > 100 | 57.2 | 96 | 45.5 | > 100 | 48 | 75.2 | 50.7 | > 100 | 64.9 | > 100 | > 100 | > 100 | > 100 |
| N=C1/C(=C/c2ccccc2)C(=O)N=C2SC=NN12 | > 100 | > 100 | > 100 | > 100 | > 100 | > 100 | > 100 | > 100 | > 100 | > 100 | > 100 | > 100 | > 100 | > 100 | > 100 |
| CN(C)C=NCc1ccc2c(c1)OCO2 | > 100 | > 100 | > 100 | > 100 | > 100 | > 100 | > 100 | > 100 | > 100 | > 100 | > 100 | > 100 | > 100 | > 100 | > 100 |
| O=C1CCCC(=O)N1n1c(Cc2ccc(Cl)cc2)n[nH]c1=O | > 100 | > 100 | > 100 | > 100 | > 100 | > 100 | > 100 | > 100 | > 100 | > 100 | > 100 | > 100 | > 100 | > 100 | > 100 |
| Clc1cc2nnn(C3CCCCO3)c2cc1Cl (stereo unspecified) | > 100 | 79.4 | > 100 | > 100 | > 100 | > 100 | > 100 | > 100 | > 100 | > 100 | > 100 | > 100 | > 100 | > 100 | > 100 |
| COC(=O)CCN1CCN(CCO)CC1C (stereo unspecified) | > 10 | > 10 | > 10 | > 10 | > 10 | > 10 | > 10 | > 10 | > 10 | > 10 | > 10 | > 10 | > 10 | > 10 | > 10 |
| Nc1nc(Cl)cc(NCC2(CO)CC(c3ccccc3)C2)n1 (stereo unspecified) | 93.9 | 84.5 | > 100 | > 100 | > 100 | > 100 | > 100 | > 100 | 29.4 | > 100 | > 100 | > 100 | > 100 | > 100 | > 100 |
| Cc1ccc(O)c(-c2cc(-c3ccccc3)nc(/N=C\c3ccccc3)n2)c1 | > 100 | > 100 | > 100 | > 100 | > 100 | > 100 | > 100 | > 100 | > 100 | > 100 | > 100 | 44 | > 100 | > 100 | > 100 |
| [O-]/N=N\c1on[n+](CCc2ccccc2)c1Cc1c(/N=N/[O-])on[n+]1CCc1ccccc1 | > 100 | > 100 | > 100 | 94 | 36.7 | > 100 | > 100 | 98.3 | 88 | > 100 | 66.6 | 70 | 46.4 | 39.8 | 65 |
| CC(=O)[C@H]1[C@@H](OCc2ccccc2)O[N+]([O-])=C(C)[C@@H]1c1ccccc1 | 41.2 | > 100 | 33.8 | > 100 | > 100 | 44.1 | > 100 | > 100 | > 100 | > 100 | 47 | > 100 | > 100 | 57.7 | 38 |
| CC(=O)OCC1=C2C(OC(=O)C(C)C)CC3(COC(C)=O)OC3/C=C\C3(C)OC3C2OC1=O (stereo unspecified) | > 100 | > 100 | > 100 | > 100 | > 100 | > 100 | > 100 | > 100 | > 100 | > 100 | > 100 | > 100 | > 100 | > 100 | > 100 |
| Cc1ccc(C)c(NC(=O)/C(=N\N)C(c2cnc3ccc([N+](=O)[O-])cc3n2)[N+](=O)[O-])c1 (stereo unspecified) | > 100 | > 100 | > 100 | > 100 | 62.9 | 25.9 | > 100 | > 100 | > 100 | > 100 | > 100 | > 100 | > 100 | > 100 | > 100 |
| CC(C)[Si](Oc1cc2c3c(ccc2c(O)c1[C@@H](C)CO[Si](C)(C)C(C)(C)C)C(C)(C)CCC3)(C(C)C)C(C)C | > 100 | > 100 | > 100 | > 100 | > 100 | > 100 | > 100 | > 100 | 59.8 | > 100 | > 100 | > 100 | > 100 | > 100 | > 100 |
| Nc1ncnc2c1ccn2CC=C(CO)CO | > 100 | > 100 | > 100 | > 100 | > 100 | > 100 | > 100 | > 100 | > 100 | > 100 | > 100 | > 100 | > 100 | > 100 | > 100 |
| CCCC1=NC(C(F)(F)F)(C(F)(F)F)N=C(N2CCOCC2)O1 | > 100 | > 100 | > 100 | > 100 | > 100 | > 100 | – | > 100 | > 100 | > 100 | > 100 | > 100 | > 100 | > 100 | > 100 |
| Cc1ccc(S(=O)(=O)Nn2c(C)cc3ccc(S(=O)(=O)Nc4ccccc4[N+](=O)[O-])cc3c2=O)cc1 | > 100 | > 100 | > 100 | > 100 | > 100 | > 100 | > 100 | > 100 | – | > 100 | > 100 | > 100 | > 100 | > 100 | > 100 |
